In brackets after ≈: the same amount, converted by molar mass.
Columns and labels:
[1] = Metabolic stability in human liver microsomes; format: in vitro ADME; settings: pH 7.4
Method: (§1) Thermodynamic solubility was assessed by dissolving 2 to 3 mg of test compound to equilibrium in 100 mM KPO4-buffer, pH 7.4. The metabolic stability assay was performed in the presence of human and mouse liver microsomes by measurement of test compounds disappearance over time (60 min). The plasma protein binding assay, including stability estimation, was performed using the RED devices (Thermo Fisher Scientific) in the presence of human and mouse plasma. All samples from the in vitro ADME studies were quantified by liquid chromatography-triple quadrupole mass spectrometry (LC–MS/MS). The assays were performed as previously described ([36]) and the details are available in SI Appendix. Cytotoxicity was assessed by incubation of test compounds in the presence of HepG2 cells for 72 h as previously described ([37]). […]
(§2) The plate is then sealed, centrifuged and the supernatant is analysed by liquid
chromatography coupled to triple quadrupole mass spectrometry (LC-MS/MS).
Metabolic stability in the presence of human and animal liver microsomes. Metabolic stability
was determined in 0.5 mg/ml human or animal liver microsomes at a compound concentration
of 1 μM in 100 mM KPO4 buffer pH 7.4 in a total incubation volume of 500 μl. The reaction was
initiated by addition of 1 mM NADPH. At various incubation times, i.e. at 0, 5, 10, 20, 40 and 60
min, a sample was withdrawn from the incubation and the reaction was terminated by addition
of cold acetonitrile with warfarin as an internal standard. […]
(§3) Liquid chromatography coupled to triple quadrupole mass spectrometry (LC-MS/MS). The test
(§4) compounds were optimized on a Waters Acquity UPLC XEVO TQ-S micro system (Waters Corp.)
(§5) operating in multiple reaction monitoring (MRM) mode with positive or negative electrospray
(§6) ionization. Compounds were optimized by using the QuanOptimize software (Waters Corp.).
(§7) For chromatographic separation, a C18 BEH 1.7 µm column was used, with a general gradient of
(§8) 1% to 90% of mobile phase B over a total running time of 2 min. Mobile phase A consisted of
(§9) 5% acetonitrile and 0.1% formic acid in purified water, and mobile phase B of 0.1% formic acid
(§10) in 100% acetonitrile. The flow rate was set to 0.5 ml/min and 5 µL of the sample was injected.

[2] = Plasma protein binding (RED device); format: in vitro ADME; settings: plasma (50% plasma, 50% isotonic buffer), pH 7.4; human plasma
Method: Thermodynamic solubility was assessed by dissolving 2 to 3 mg of test compound to equilibrium in 100 mM KPO4-buffer, pH 7.4. The metabolic stability assay was performed in the presence of human and mouse liver microsomes by measurement of test compounds disappearance over time (60 min). The plasma protein binding assay, including stability estimation, was performed using the RED devices (Thermo Fisher Scientific) in the presence of human and mouse plasma. All samples from the in vitro ADME studies were quantified by liquid chromatography-triple quadrupole mass spectrometry (LC–MS/MS). The assays were performed as previously described ([36]) and the details are available in SI Appendix. Cytotoxicity was assessed by incubation of test compounds in the presence of HepG2 cells for 72 h as previously described ([37]).
Plasma protein binding and plasma stability in human and animal plasma. Pooled,
anonymized human plasma was provided by Uppsala Academic Hospital and was collected from
two donors (non-smoking) (citric acid). In brief, 0.2 ml of the plasma (50% plasma, 50% isotonic
buffer) test solution (typically 10 μM final compound concentration) was transferred to the
membrane tube in the RED insert (ThermoFisher Scientific). 0.35 ml isotonic phosphate buffer
pH 7.4 was added to the other side of the membrane. The 96-well base plate was then sealed
with an adhesive plastic film (Scotch Pad) to prevent evaporation. The sample was incubated
with rapid rotation (900 rpm) on a Kisker rotational incubator at 37°C for 4 h to achieve
equilibrium. A stability test of the test solution was prepared (to allow detection of drug
degradation), 100 μL of the plasma test solution (in a plastic vial or on a sealed plate) was
incubated at 37°C for 4 h (or as long as the dialysis time). The plasma test solution was frozen
directly after the administration to prevent any degradation. Prior to LC-MS/MS analysis the
plasma and buffer sample were treated with the addition of Methanol (1:3) containing Warfarin
as internal standard to precipitate proteins. The standard curve was created using the plasma
standard. The plate is then sealed, centrifuged and the supernatant is analysed by liquid
(§11) chromatography coupled to triple quadrupole mass spectrometry (LC-MS/MS). […]
as §3, §4, §5, §6, §7, §8, §9, §10

Thermodynamic solubility = format: physicochemical; settings: 37 °C, aqueous buffer, thermodynamic from solid; 100 mM KPO4-buffer, pH 7.4
Method: as §1, §2, §11
Thermodynamic solubility. Thermodynamic solubility assay utilized solid form of a test
compound. Solid test compound (~2-3 mg) was weighed in a glass HPLC vial and 100 mM KPO4-
buffer, pH 7.4 was added to give a theoretical max concentration if everything is dissolved of ~5-
6 mg/ml. The vial was incubated at 900 rpm, 37 °C in a rotational shaker for 24h. After the
incubation an aliquot (200 µl) was transferred to a glass insert and centrifuged at 10 000xg, 37 °C
for 20 min to separate any solid material from the solution. The supernatant was transferred to
a new HPLC vial and analysed by liquid chromatography coupled to triple quadrupole mass
as §3, §4, §5, §6, §7, §8, §9, §10

Structure (SMILES) | microsomal CLint at 1 µM [1] [µL/min/mg] | fraction unbound at 4 h, 10 µM [2] | solubility thermodynamic at 24 h (Thermodynamic solubility) [µM]
Cc1cc(C#N)nc(N2CCN(S(=O)(=O)c3ccc(NC(=O)c4ccccc4N(C)S(C)(=O)=O)cc3)CC2)n1 [EBL-3339] | 551 | 0.0054 | 1.2 (≈ 0.684 µg/mL)
CN(c1ccc(CNCCN)cc1C(=O)Nc1ccc(S(=O)(=O)N2CCN(c3cc(Cl)cc(Cl)c3)CC2)cc1)S(C)(=O)=O [EBL-3025] | 42.2 | 0.001 | 4 (≈ 2.68 µg/mL)
Cc1cc(C#N)nc(N2CCN(S(=O)(=O)c3ccc(NC(=O)c4cc(CNCCCN)ccc4N(C)S(C)(=O)=O)cc3)CC2)n1.Cl.Cl [EBL-3599] | < 5 | 0.02 | 1530
Cc1cc(C#N)nc(N2CCN(S(=O)(=O)c3ccc(NC(=O)c4cc(CN5CC(CN)C5)ccc4N(C)S(C)(=O)=O)cc3)CC2)n1 [EBL-3647] | 3.1 | 0.025 | 1090 (≈ 728 µg/mL)
CN(c1ccccc1C(=O)Nc1ccc(S(=O)(=O)N2CCN(c3cccc(C(F)(F)F)c3)CC2)cc1)S(C)(=O)=O [JEDI-1444] | 209 | 0.001 | 0.21 (≈ 0.125 µg/mL)
